The record followed here is US7342033B2 (Vereniging Voor Christelijk Wetenschappelijk Onderwijs, priority 1999, dated 2008).

The series relates to multiple sclerosis patients. Nature of the series: Adverse events and tolerability in the same study. The class given is in vivo, human.

Source text: We selected 9 women and 7 men (aged 30-66 years) with documented progression during the 24 months before inclusion, from a natural history study. Kurtzke's EDSS scores were between 3.0 (inclusive) and 7.5 (inclusive). All adverse events were documented; safety lab consisted of serum transaminases (monthly for 3 months and every 3 months thereafter) and hematology (CBC and differential every 6 months) after the start of treatment. The study was approved by the hospital ethics committee, and all patients gave informed consent.

For the compound `Nc1nc2ccc(OC(F)(F)F)cc2s1` [riluzole, (6-trifluoromethoxy)-2-benzothiazolamine)], the “Medically severe adverse effects” value (14 patients who took medication for over three months) is listed as “not observed”. Moreover, the “Patients who needed intermittent reduction in dosage of study drug” value (of 16 patients, riluzole 2×50 mg daily) was “Five”. Further, the “Patients who discontinued treatment because of side effects” value (of 16 patients, headache in one, increase in spasticity in the other) is “Two”.
